Assay results published in BindingDB's records for doi:10.1124/jpet.300.3.1122 (Sanofi-Synthelabo Recherche, 2002).

Columns and labels:
Vasopressin V2 receptor = Vasopressin V2 receptor (Rattus norvegicus, UniProt Q00788)
Oxytocin receptor = target: T1, Oxytocin receptor (Rattus norvegicus, UniProt P70536)
T1 sequence (P70536 whole entry): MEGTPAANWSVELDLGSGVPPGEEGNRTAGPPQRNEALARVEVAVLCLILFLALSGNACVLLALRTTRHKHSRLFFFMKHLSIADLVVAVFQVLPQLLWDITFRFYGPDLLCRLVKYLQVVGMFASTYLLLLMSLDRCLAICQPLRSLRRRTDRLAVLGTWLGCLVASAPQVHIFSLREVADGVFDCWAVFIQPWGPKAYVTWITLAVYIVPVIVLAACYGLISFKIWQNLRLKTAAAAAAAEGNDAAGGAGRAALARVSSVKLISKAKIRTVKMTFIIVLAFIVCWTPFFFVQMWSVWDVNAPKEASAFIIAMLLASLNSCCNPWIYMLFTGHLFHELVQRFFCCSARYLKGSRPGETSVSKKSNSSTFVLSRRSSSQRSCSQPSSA

Vasopressin V1a receptor = Vasopressin V1a receptor (Rattus norvegicus, UniProt P30560)
Vasopressin V1b receptor = target: T2, Vasopressin V1b receptor (Bos taurus, UniProt F1ME85)
T2 sequence (F1ME85 whole entry): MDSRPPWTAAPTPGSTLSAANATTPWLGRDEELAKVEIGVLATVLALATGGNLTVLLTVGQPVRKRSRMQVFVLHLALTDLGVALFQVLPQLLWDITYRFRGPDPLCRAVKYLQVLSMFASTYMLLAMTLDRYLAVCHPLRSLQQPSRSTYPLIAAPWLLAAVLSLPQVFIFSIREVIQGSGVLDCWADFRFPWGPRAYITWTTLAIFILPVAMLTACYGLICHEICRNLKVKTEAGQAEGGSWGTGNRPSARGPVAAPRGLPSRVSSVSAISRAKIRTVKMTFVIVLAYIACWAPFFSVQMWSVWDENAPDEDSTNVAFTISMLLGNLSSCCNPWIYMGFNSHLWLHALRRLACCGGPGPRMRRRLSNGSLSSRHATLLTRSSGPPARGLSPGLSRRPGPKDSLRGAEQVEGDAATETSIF

Chain of Vasopressin V2 receptor (Q00788 whole entry): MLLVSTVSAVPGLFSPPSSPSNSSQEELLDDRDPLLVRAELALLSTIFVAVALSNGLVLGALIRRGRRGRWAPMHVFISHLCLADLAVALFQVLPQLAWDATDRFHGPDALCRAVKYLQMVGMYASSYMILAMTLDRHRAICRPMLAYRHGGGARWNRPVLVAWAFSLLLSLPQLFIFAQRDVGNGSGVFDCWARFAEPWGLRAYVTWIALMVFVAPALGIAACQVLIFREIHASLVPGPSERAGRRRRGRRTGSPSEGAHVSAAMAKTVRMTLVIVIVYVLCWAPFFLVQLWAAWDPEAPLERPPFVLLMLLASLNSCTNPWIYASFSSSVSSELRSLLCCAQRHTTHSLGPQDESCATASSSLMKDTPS
Chain of Vasopressin V1a receptor (P30560 whole entry): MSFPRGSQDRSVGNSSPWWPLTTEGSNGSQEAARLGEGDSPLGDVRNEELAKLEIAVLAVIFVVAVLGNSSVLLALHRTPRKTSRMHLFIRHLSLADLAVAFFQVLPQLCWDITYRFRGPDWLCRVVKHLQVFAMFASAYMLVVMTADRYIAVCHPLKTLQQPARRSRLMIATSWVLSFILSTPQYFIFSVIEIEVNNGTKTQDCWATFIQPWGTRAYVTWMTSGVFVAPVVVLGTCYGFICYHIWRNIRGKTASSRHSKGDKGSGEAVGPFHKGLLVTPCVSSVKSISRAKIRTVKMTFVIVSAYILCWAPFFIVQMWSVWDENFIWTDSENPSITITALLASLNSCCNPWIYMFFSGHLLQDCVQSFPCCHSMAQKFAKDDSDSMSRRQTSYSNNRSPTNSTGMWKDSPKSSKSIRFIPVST

- Ki (Vasopressin V2 receptor): 2900 nM
- Ki (Oxytocin receptor): 270 nM
- Ki (Vasopressin V1a receptor): 1050 nM
- Ki (Vasopressin V1b receptor): 2.7 nM
Compound: COc1ccc(S(=O)(=O)N2C(=O)[C@@](c3ccccc3OC)(N3C[C@H](O)C[C@H]3C(=O)N(C)C)c3cc(Cl)ccc32)c(OC)c1 [SSR149415]
